Assay results published in patent publication EP2681209B1, “COMPOUNDS AND METHODS FOR THE TREATMENT OF PAIN AND OTHER DISORDERS” (Aquilus Pharmaceuticals, Inc, priority 2011, dated 2012).

Columns and labels:
[1] = In-vitro microsomal stability in mouse microsomes; assay type: in vitro ADME; conditions: 1 µM compound, mouse microsomes 0.3 mg/mL, at T = 60 minutes; for %Mean Remaining Parent without NADPH (%): control omitting NADPH
Description: Human and mouse microsomal stability was determined for select compounds following the method of Houston (Houston, JB; Biochem. Pharmacol. 47, (1994),1469).
1 µM concentration of compound and seperate human and mouse microsomes (0.3 mg/mL, BD bioscience) were used in the in-vitro assay. To ensure proper energy supply for microsomal degradation of compound, an energy regenerating system comprised of 100 mM potassium phosphate, 2mM NADPH, 3mM MgCl2, pH = 7.4. and the microsomal protein is added to each sample and the resulting suspension is then incubated in duplicate for 60 min at 37° C. in a rotary shaker. A control is run for each test agent in duplicate omitting NADPH to detect NADPH-free degradation. At T=0 and T= 60 min., an aliquot is removed from each experimental and control reaction and then mixed with an equal volume of ice-cold Stop Solution (consisting of 0.3% acetic acid in acetonitrile containing haloperidol and diclofenac as internal standards). Stopped reactions are then incubated for at least ten minutes at -20 °C, and an additional volume of water is then be added. The samples are then centrifuged to remove precipitated protein, and the supernatants are then analyzed by LC-MS/MS to determine the percentage of compound remaining. The LC-MS/MS system used was an Agilent 6410 mass spectrometer coupled with an Agilent 1200 HPLC and a CTC PAL chilled autosampler, all controlled by MassHunter software (Agilent), or an ABI2000 mass spectrometer coupled with an Agilent 1100 HPLC and a CTC PAL chilled autosampler, all controlled by Analyst software (ABI). After separation on a C18 reverse phase HPLC column (Agilent, Waters, or equivalent) using an acetonitrile-water gradient system, peaks were analyzed by mass spectrometry (MS) using ESI ionization in MRM mode.

FVB male mice = assay: Spinal nerve ligation (SNL) mouse model of neuropathic pain, intrathecal administration, von Frey tactile allodynia test; assay type: in vivo; conditions: for 50% paw withdrawal threshold, Mean, Day 0 Postoperative Baseline: group baseline after SNL injury, before first injection; for 50% paw withdrawal threshold, Mean, Day 0 Postoperative Baseline / 50% paw withdrawal threshold, Mean, Day(-2) Pre-operative Baseline: von Frey; for 50% paw withdrawal threshold, Mean, Day(-2) Pre-operative Baseline: group baseline prior to SNL injury and before any treatment; for 50% paw withdrawal threshold, Mean, Day 5 / 50% paw withdrawal threshold, Mean, Day 7 / 50% paw withdrawal threshold, Mean, Day 1: i.t. 10 µl/mouse daily injections day 1-6; for 50% paw withdrawal threshold, Mean, Day 1: testing 2hr after first i.t. injection
Description: To measure the neuropathic pain inhibiting affects of the MMP inhibitors of the present invention, the spinal nerve ligation (SNL) mouse model was run on a select number of compounds. This model which began with the work of Bennet and coworkers (Bennet, G.J. et al. Pain, 33, (1988), 87-107) and was optimized by Kim and Chung (Kim, S.H.; Chung, J.M. Pain, 50, (1992), 355-363) entails first, under magnification, the removal of one-third of the transverse process and then identifying and then dissecting free the L5 spinal nerve from the adjacent L4 spinal nerve in the mouse. The L5 spinal nerve is then tightly ligated using 6.0 silk suture. The nerve injury leads to hyperalgesia which manifests itself by enhanced responses to mechanical, heat and/or cooling stimuli. In this case, mechanical hyperalgesia is tested via Von Frey monofilaments in which filaments of varying thicknesses and bending force are individually applied to the plantar surface of the foot of the mouse. The threshold force necessary for paw withdrawal decreases dramatically after the nerve surgery. Potent pain inhibitors will reverse this affect resulting in greater force needing to be applied to cause the rodent paw to withdrawal.
Following preoperative baseline (Day -2) paw threshold measurement, FVB male mice were subjected to SNL injury (Day -1). The next day (Day 0) after SNL surgery, the animals were tested for post-operative baseline threshold measurements for mechanical allodynia; and the animals were then randomly assigned to one of 3 treatment groups (see Table 3). Over the course of the study, paw withdrawal threshold of these animals was measured in response to mechanical stimulation using the von Frey Monofilament Test.
To avoid systemic effects of the MMP inhibitors, the MMP inhibitors of the present invention were delivered into the cerebral spinal fluid (CSF) space around lumbosacral spinal cord via intrathecal (i.t.) administration, with the idea of targeting MMPs in the DRG, spinal cord, and spinal CSF. Intrathecal MMP inhibitor administration could then target not only spinal cord cells but also DRG cells. Each intrathecal (i.t.) injection was carried out according to the technique of Hylden and Wilcox (Hylden JL, Wilcox GL. Eur. J Pharmacol., 67, (1980), 313-6) 5.2 mg of each of the MMP inhibitors were first dissolved in 140 microliters of DMSO and then put into 1260 microliters of 0.5% hydroxypropyl cellulose (HPC) in water to make a fine suspension composed of compound in 10%DMSO-0.5% hydroxypropyl cellulose. 10 microliters of the mixture was injected into the intrathecal space of male FVB mice (weighing 22-25 grams each and obtained from the Jackson Laboratories, Bar Harbor, Me), by lumbar puncture in a volume of 10 µl/mouse using a Hamilton microsyringe via a 30 gauge needle inserted between lumbar vertebrae 5 and 6. In brief, each animal was held firmly by the pelvic girdle in one hand, while the needle was inserted into the tissue on the right side of the L5 or L6 spinous process. The needle was moved forward and slipped into the groove between the spinous process and transverse process and gently moved forward to the intervertebral space at ∼10° angle. As the needle was inserted (∼0.5 cm) within the vertebral column a tail flick was evident, and the solution was then injected. Table 3. Animal i.t. Treatment Groups & Compounds Tested
Tactile Allodynia Test. Mechanical allodynia was measured using the calibrated von Frey filaments (Semmes-Weinstein monofilaments; Stoelting, Wood Dale, IL, U.S.A.). The plantar surface of the left injured paw of each animal was tested as described by Chaplan et al. (Journal of Neuroscience Methods, 53, (1994), 55-63). […]

Compound	%Mean Remaining Parent with NADPH (%) [1]	%Mean Remaining Parent without NADPH (%) [1]	50% paw withdrawal threshold, Mean, Day 0 Postoperative Baseline (FVB male mice)	50% paw withdrawal threshold, Mean, Day(-2) Pre-operative Baseline (FVB male mice)	50% paw withdrawal threshold, Mean, Day 5 (FVB male mice)	50% paw withdrawal threshold, Mean, Day 7 (FVB male mice)	50% paw withdrawal threshold, Mean, Day 1 (FVB male mice)	reversal of allodynia (FVB male mice; i.t. administration, as compared to vehicle and compound #5)
[2H]C([2H])([2H])c1ccc(C#Cc2ccc(S(=O)(=O)N[C@H](Cc3c[nH]c4ccccc34)C(=O)O)s2)cc1 [Compound 10, (R)-3-(1H-Indol-3-yl)-2-[5-(4-trideuteromethyl-phenylethynyl)-thiophene-2-sulfonylamino]-propionic acid-(D3, 98%)]	85%	91%	0.077 g	1.268 g	0.320 g	1.024 g	0.321 g	almost complete reversal of allodynia
Cc1ccc(C#Cc2ccc(S(=O)(=O)N[C@H](Cc3c[nH]c4ccccc34)C(=O)O)s2)cc1 [Compound 5, (R)-3-(1H-Indol-3-yl)-2-(5-p-tolylethynyl-thiophene-2-sulfonylamino)-propionic acid]	83%	88%	0.050 g	1.265 g	0.079 g	0.190 g	0.098 g	
